Measurements published in US5952322A, “Method of reducing tissue damage associated with non-cardiac ischemia using glycogen phosphorylase inhibitors” (Pfizer Inc., priority 1997, dated 1999).
pIC50: −log10 of the molar value. Read-outs that look alike come from different tables or passages of the source.

Legend:
[1] = target: T1, human muscle glycogen phosphorylase a (HMGPa) (Homo sapiens, UniProt P11217); experiment: GPa activity assay, reverse direction (inorganic phosphate release from glucose-1-phosphate), human muscle isoform; format: biochemical
T1 construct: made in house; host or cells: E. coli strain XL-1 Blue (plasmid pKK233-2)
T1 sequence (P11217 2-842 limits assumed): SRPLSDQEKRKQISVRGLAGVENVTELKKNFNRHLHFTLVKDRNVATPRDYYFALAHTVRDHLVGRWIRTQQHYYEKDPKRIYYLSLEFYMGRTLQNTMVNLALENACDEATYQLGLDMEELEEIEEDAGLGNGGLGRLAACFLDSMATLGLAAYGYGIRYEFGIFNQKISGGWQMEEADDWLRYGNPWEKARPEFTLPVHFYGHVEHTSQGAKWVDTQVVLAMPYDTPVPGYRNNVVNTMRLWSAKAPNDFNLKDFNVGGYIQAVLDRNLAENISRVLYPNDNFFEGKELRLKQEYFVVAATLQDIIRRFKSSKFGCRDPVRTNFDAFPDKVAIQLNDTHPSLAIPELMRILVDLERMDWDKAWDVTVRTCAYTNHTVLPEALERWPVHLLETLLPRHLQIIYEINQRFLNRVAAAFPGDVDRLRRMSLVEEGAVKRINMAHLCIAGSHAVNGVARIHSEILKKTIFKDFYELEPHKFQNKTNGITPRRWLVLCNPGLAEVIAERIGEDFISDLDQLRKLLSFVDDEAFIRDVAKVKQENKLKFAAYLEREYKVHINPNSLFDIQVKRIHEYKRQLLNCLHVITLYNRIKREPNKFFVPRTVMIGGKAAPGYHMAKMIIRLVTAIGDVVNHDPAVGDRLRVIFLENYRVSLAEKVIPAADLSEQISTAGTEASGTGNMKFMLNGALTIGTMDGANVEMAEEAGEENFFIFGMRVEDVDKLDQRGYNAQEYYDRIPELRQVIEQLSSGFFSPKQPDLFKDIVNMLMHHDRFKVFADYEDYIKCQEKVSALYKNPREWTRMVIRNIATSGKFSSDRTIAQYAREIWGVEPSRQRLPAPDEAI
Procedure: (§1) All reactions are run in triplicate in 96-well microtiter plates and the change in absorbance due to formation of the reaction product is measured at the wavelength specified below in a MCC/340 MKII Elisa Reader (Lab Systems, Finland), connected to a Titertech Microplate Stacker (ICN Biomedical Co, Huntsville, Ala.).
(§2) Buffer B is at pH 7.2 and contains 50 mM HEPES, 100 mM KCl, 2.5 mM EGTA, 2.5 mM MgCl2 and 0.5 mM dithiothreitol. […] After a 20 minute incubation at room temperature, the absorbance is measured at 620 nm.

[2] = target: T2, human liver glycogen phosphorylase a (HLGPa) (Homo sapiens, UniProt P06737); experiment: GPa activity assay, reverse direction (inorganic phosphate release from glucose-1-phosphate), human liver isoform; format: biochemical
T2 construct: made in house; host or cells: E. coli XL-1 Blue (pKK233-2) or Sf9 insect cells (pBlueBac III baculovirus)
T2 sequence (P06737 2-847 limits assumed): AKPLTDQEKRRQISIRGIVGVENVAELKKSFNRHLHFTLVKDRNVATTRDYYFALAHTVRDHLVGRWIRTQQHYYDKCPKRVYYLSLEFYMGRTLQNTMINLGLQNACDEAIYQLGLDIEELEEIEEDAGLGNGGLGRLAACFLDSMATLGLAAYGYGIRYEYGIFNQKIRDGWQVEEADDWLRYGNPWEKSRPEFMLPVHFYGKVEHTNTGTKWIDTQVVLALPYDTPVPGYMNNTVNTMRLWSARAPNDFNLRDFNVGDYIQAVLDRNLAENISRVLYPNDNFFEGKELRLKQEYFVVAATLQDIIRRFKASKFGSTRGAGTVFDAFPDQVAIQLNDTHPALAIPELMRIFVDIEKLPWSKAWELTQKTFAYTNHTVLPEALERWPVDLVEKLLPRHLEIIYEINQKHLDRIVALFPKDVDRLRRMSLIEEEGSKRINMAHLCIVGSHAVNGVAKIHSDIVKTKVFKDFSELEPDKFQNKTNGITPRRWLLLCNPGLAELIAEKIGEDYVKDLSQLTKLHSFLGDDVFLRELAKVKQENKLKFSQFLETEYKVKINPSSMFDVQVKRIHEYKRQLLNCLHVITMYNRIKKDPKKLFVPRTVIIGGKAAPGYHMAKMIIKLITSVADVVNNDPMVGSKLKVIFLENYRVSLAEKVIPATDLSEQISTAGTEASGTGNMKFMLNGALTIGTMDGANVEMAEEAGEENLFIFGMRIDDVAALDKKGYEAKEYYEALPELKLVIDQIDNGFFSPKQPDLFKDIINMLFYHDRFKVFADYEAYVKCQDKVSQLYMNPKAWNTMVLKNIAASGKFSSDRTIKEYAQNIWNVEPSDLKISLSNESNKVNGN
Procedure: as §1, §2

rabbit isolated heart [3] = experiment: Cardioprotection (reduction of infarcted myocardium) in isolated, retrogradely perfused (Langendorff) rabbit heart after regional ischemia and reperfusion; parameters: species or system Male New Zealand White rabbits; details: for Infarct Area/Area-at-Risk (%IA/AAR): standard error in own column, control 63.9
From the text: Cardioprotection, as indicated by a reduction in infarcted myocardium, can be induced pharmacologically using adenosine receptor agonists in isolated, retrogradely perfused rabbit hearts as an in vitro model of myocardial ischemic preconditioning (Liu et al., Cardiovasc. Res., 28:1057-1061, 1994). […] The exact methodology is described below.
The protocol used for these experiments closely follows that described by Liu et al., Cardiovasc. Res., 28:1057-1061, 1994. Male New Zealand White rabbits (3-4 kg) are anesthetized with sodium pentobarbital (30 mg/kg, i.v.). After deep anesthesia is achieved (determined by the absence of an ocular blink reflex) the animal is intubated and ventilated with 100% O2 using a positive pressure ventilator. A left thoracotomy is performed, the heart exposed, and a snare (2-0 silk) is placed loosely around a branch of the left anterior descending coronary artery, approximately 2/3 of the distance towards the apex of the heart. The heart is removed from the chest and rapidly (<30 sec) mounted on a Langendorff apparatus. The heart is retrogradely perfused via the aorta in a non-recirculating manner with a modified Krebs solution (NaCl 118.5 mM, KCl 4.7 mM, Mg SO4 1.2 mM, KH2 PO4 1.2 mM, NaHCO3 24.8 mM, CaCl2 2.5 mM, and glucose 10 mM), at a constant pressure of 80 mmHg and a temperature of 37° C. […] Heart rate and left ventricular pressures are determined via a latex balloon which is inserted in the left ventricle and connected by stainless steel tubing to a pressure transducer. […] Perfusate flow rates are routinely determined throughout the experimental period. […]
At the end of the 120 min reperfusion period, the coronary artery snare is tightened, and a 0.5% suspension of fluorescent zinc cadmium sulfate particles ([…]) is perfused through the heart; this stains all of the myocardium, except that area at risk for infarct development (area-at-risk). […] The infarcted area (no stain) and the area-at-risk (no fluorescent particles) are calculated for each slice of left ventricle using a precalibrated image analyzer. […]

rabbit isolated heart [4] = details: Liu et al., Cardiovasc. Res., 28:1057-1061, 1994; cited from earlier work
[5] = reverse direction assay, HLGPa, read-out: HLGPa IC50

Row | SMILES | pIC50 [1] | pIC50 [2, 5] | further results
1 | CN(CCO)C(=O)[C@H](O)[C@H](Cc1ccccc1)NC(=O)c1cc2cc(Cl)ccc2[nH]1 [5-Chloro-1H-indole-2-carboxylic acid ((1S)-{(R)-hydroxy-[(2-hydroxy-ethyl)methyl-carbamoyl]-methyl}-2-phenyl-ethyl)-amide] | 7.70 | 6.82 | –
2 | CN(C)C(=O)[C@H](O)[C@H](Cc1ccccc1)NC(=O)c1cc2cc(Cl)ccc2[nH]1 [5-Chloro-1H-indole-2-carboxylic acid [(1S)-((R)-hydroxy-dimethylcarbamoyl-methyl)-2-phenyl-ethyl]-amide] | 6.81 | – | pIC50 [2]: 6.97
3 | CON(C)C(=O)[C@H](O)[C@H](Cc1ccccc1)NC(=O)c1cc2cc(Cl)ccc2[nH]1 [5-Chloro-1H-indole-2-carboxylic acid {(1S)-[(R)-hydroxy-(methoxy-methylcarbamoyl)-methyl]-2-phenyl-ethyl}-amide] | 6.96 | 7.29 | –
4 | O=C(N[C@@H](Cc1ccccc1)C(=O)N1CC(O)C1)c1cc2cc(Cl)ccc2[nH]1 [5-chloro-1H-indole-2-carboxylic acid [(1S)-benzyl-2-(3-hydroxy-azetidin-1-yl)-2-oxo-ethyl]-amide] | – | – | cardioprotection relative to the control group (rabbit isolated heart [3]; 5 μM): significant cardioprotection; Infarct Area/Area-at-Risk (%IA/AAR) (rabbit isolated heart [3]; 5 μM, perfused from 30 min before 30 min regional ischemia through 120 min reperfusion, n=6): 31.4%
5 | Nc1ccc(CCNc2ncnc3c2ncn3[C@@H]2O[C@H](CO)[C@@H](O)[C@H]2O)cc1 [APNEA, N^6-[2-(4-aminophenyl)ethyl]adenosine, reference compound] | – | – | pharmacologically induced cardioprotection in the rabbit isolated heart (rabbit isolated heart [4]): shown to pharmacologically induce cardioprotection; Infarct Area/Area-at-Risk (%IA/AAR) (rabbit isolated heart [3]; 500 nM, perfused 5 min, then 10 min drug-free, before 30 min ischemia and 120 min reperfusion, n=9): 19.0%
